Assays:
[1] = tested on: PAI-1 gene expression in BEAS-2B cells; assay: TNF-α and TGF-β induced PAI-1 gene expression in BEAS-2B cells (RT-qPCR); type: cell-based; conditions: agent 10 μM
Procedure: The primary assay for the activity of the novel CK1δ/ε inhibitors is the modulation of gene expression in the airway epithelial cell line, the BEAS-2B cells. The assay is conducted under several conditions. Generally, TGF-β or TNF-α is used to elicit fibrogenic or inflammatory genes, respectively. The agents are added at a concentration of 10 μM, or at the indicated concentrations for a period of 30 min prior to the addition of TGF-β/TNF-α which are incubated for a further 20 hours before the addition, in some experiments of the glucocorticoid, dexamethasone (Dex, 30 nM) for the final 4 hours of the experiment, prior to harvest of cellular RNA to measure by RT-qPCR the levels of mRNA of marker genes for inflammation and fibrogenesis. The inhaled corticosteroid (ICS), budesonide is also used in some experiments. Furthermore, the supernatants are harvested at the end of the incubation periods in selected experiments to measure the levels of CSF-2 or IL-8 by ELISA as described in (Tran et al. (2005) British Journal of Pharmacology, 145, 123-131). Prior to experimentation, BEAS-2B and A549 cells were incubated in serum-free DMEM containing 0.25% bovine serum albumin (BSA) and insulin-transferrin-selenium—containing supplement (Monomed A; CSL, Parkville, Melbourne, Australia). Where indicated, cells were treated with one of the series of synthesised compounds (0.3-10 μM) prior to exposure to 100 pM TGF-β1 (R&D Systems, Minneapolis, Minn.) or 300 pM bFGF (Promega, Madison, Wis.). Total RNA was extracted from cultured cells using illustra RNAspin Mini RNA Isolation Kit (GE Healthcare). RNA extracts were reverse-transcribed into cDNA using High-Capacity RNA-to-cDNA Kit (Applied Biosystems). Real-time PCR was then performed using a QuantStudio 6 Flex Real-Time PCR System using iTaq Universal SYBR green supermix and the following thermal protocol: 50° C. (2 min), 95° C. (10 min), then 40 cycles of 95° C. (15 sec), 60° C. (1 min). The threshold cycle (CT) values determined for target genes were normalized against those obtained for 18S ribosomal RNA (18S rRNA), which was included as internal control. The generation of specific PCR products was confirmed by dissociation curve analysis. In the same experiment as described in FIG. 1, the expression of the fibrogen plasminogen activator inhibitor-1 was measured (see FIG. 2). The levels of this gene are increased by both TGF-β and by Dex and they synergise when added together. The CK1 inhibitors concentration-dependently reduce the effects of each of the stimuli and further reduce baseline expression. Their potency in this effect is similar, regardless of the condition being considered. In a separate experiment BEAS-2B cells were exposed to TNF-α with(out) 30 min pretreatment with either SS9-010 or PF670462 (1-10 μM). RNA was then extracted and analyzed by RT-qPCR. Each agent inhibited TNFa stimulated PAI-1 expression with similar potency and maxima (see FIG. 3). Data are presented as mean±SD for n=1 (three technical replicates).

[2] = tested on: Col 1A gene expression in BEAS-2B cells; assay: TNFα and TGFβ induced Col 1A gene expression in BEAS-2B cells (RT-qPCR); type: cell-based; conditions: agent 10 μM
Procedure: The primary assay for the activity of the novel CK1δ/ε inhibitors is the modulation of gene expression in the airway epithelial cell line, the BEAS-2B cells. The assay is conducted under several conditions. Generally, TGF-β or TNF-α is used to elicit fibrogenic or inflammatory genes, respectively. The agents are added at a concentration of 10 μM, or at the indicated concentrations for a period of 30 min prior to the addition of TGF-β/TNF-α which are incubated for a further 20 hours before the addition, in some experiments of the glucocorticoid, dexamethasone (Dex, 30 nM) for the final 4 hours of the experiment, prior to harvest of cellular RNA to measure by RT-qPCR the levels of mRNA of marker genes for inflammation and fibrogenesis. The inhaled corticosteroid (ICS), budesonide is also used in some experiments. Furthermore, the supernatants are harvested at the end of the incubation periods in selected experiments to measure the levels of CSF-2 or IL-8 by ELISA as described in (Tran et al. (2005) British Journal of Pharmacology, 145, 123-131).
Prior to experimentation, BEAS-2B and A549 cells were incubated in serum-free DMEM containing 0.25% bovine serum albumin (BSA) and insulin-transferrin-selenium—containing supplement (Monomed A; CSL, Parkville, Melbourne, Australia). Where indicated, cells were treated with one of the series of synthesised compounds (0.3-10 μM) prior to exposure to 100 pM TGF-β1 (R&D Systems, Minneapolis, Minn.) or 300 pM bFGF (Promega, Madison, Wis.).
Total RNA was extracted from cultured cells using illustra RNAspin Mini RNA Isolation Kit (GE Healthcare). RNA extracts were reverse-transcribed into cDNA using High-Capacity RNA-to-cDNA Kit (Applied Biosystems). Real-time PCR was then performed using a QuantStudio 6 Flex Real-Time PCR System using iTaq Universal SYBR green supermix and the following thermal protocol: 50° C. (2 min), 95° C. (10 min), then 40 cycles of 95° C. (15 sec), 60° C. (1 min). The threshold cycle (CT) values determined for target genes were normalized against those obtained for 18S ribosomal RNA (18S rRNA), which was included as internal control. The generation of specific PCR products was confirmed by dissociation curve analysis.

[3] = tested on: SCNN1A gene expression in BEAS-2B cells; assay: TGF-β-induced suppression of dexamethasone-induced SCNN1A gene expression in BEAS-2B cells; type: cell-based; conditions: BEAS-2B, agent 10 μM
Procedure: The primary assay for the activity of the novel CK1δ/ε inhibitors is the modulation of gene expression in the airway epithelial cell line, the BEAS-2B cells. The assay is conducted under several conditions. Generally, TGF-β or TNF-α is used to elicit fibrogenic or inflammatory genes, respectively. The agents are added at a concentration of 10 μM, or at the indicated concentrations for a period of 30 min prior to the addition of TGF-β/TNF-α which are incubated for a further 20 hours before the addition, in some experiments of the glucocorticoid, dexamethasone (Dex, 30 nM) for the final 4 hours of the experiment, prior to harvest of cellular RNA to measure by RT-qPCR the levels of mRNA of marker genes for inflammation and fibrogenesis. The inhaled corticosteroid (ICS), budesonide is also used in some experiments. Furthermore, the supernatants are harvested at the end of the incubation periods in selected experiments to measure the levels of CSF-2 or IL-8 by ELISA as described in (Tran et al. (2005) British Journal of Pharmacology, 145, 123-131). Prior to experimentation, BEAS-2B and A549 cells were incubated in serum-free DMEM containing 0.25% bovine serum albumin (BSA) and insulin-transferrin-selenium—containing supplement (Monomed A; CSL, Parkville, Melbourne, Australia). Where indicated, cells were treated with one of the series of synthesised compounds (0.3-10 μM) prior to exposure to 100 pM TGF-β1 (R&D Systems, Minneapolis, Minn.) or 300 pM bFGF (Promega, Madison, Wis.). Total RNA was extracted from cultured cells using illustra RNAspin Mini RNA Isolation Kit (GE Healthcare). RNA extracts were reverse-transcribed into cDNA using High-Capacity RNA-to-cDNA Kit (Applied Biosystems). Real-time PCR was then performed using a QuantStudio 6 Flex Real-Time PCR System using iTaq Universal SYBR green supermix and the following thermal protocol: 50° C. (2 min), 95° C. (10 min), then 40 cycles of 95° C. (15 sec), 60° C. (1 min). The threshold cycle (CT) values determined for target genes were normalized against those obtained for 18S ribosomal RNA (18S rRNA), which was included as internal control. The generation of specific PCR products was confirmed by dissociation curve analysis. In FIG. 1, the effects of SS9-010 are contrasted with those of PF670462 in an assay in BEAS-B cells measuring the induction of the glucocorticoid-regulated gene, SCNN1A encoding the protein epithelial sodium channel alpha subunit. Serum-starved BEAS-2B cells were treated with CK1δ/ε inhibitor PF670462 (1, 3, 10 μM) or SS9-010 (1, 3, 10 μM) 30 min prior to TGF-β1 (40 pM) for 24 hours, then stimulated with dexamethasone (30 nM) for 4 hours. RNA was then extracted and analyzed by RT-qPCR. Data are presented as mean±SEM for n=4 independent experiments. The potency of PF670462 and SS9-010 were similar.

Row | SMILES | PAI-1 mRNA level, TGF-β [1] | PAI-1 mRNA level, TNF-α (n = 2) [1] [fold control] | PAI-1 mRNA level, vehicle (no stimulus) [1] [fold control] | Col1A mRNA level, TGF-β [2] | Col1A mRNA level, TNF-α (n = 2) [2] [fold control] | Col1A mRNA level, vehicle (no stimulus) [2] [fold control] | SCNN1A mRNA level, Dex [3] [fold control] | SCNN1A mRNA level, TGF-β [3] [fold control] | SCNN1A mRNA level, TGF-β/Dex [3] [fold control] | SCNN1A mRNA level, vehicle (no stimulus) [3] [fold control] | melting point [°C]
1 | Nc1nccc(-c2c(-c3ccc(F)cc3)ncn2C2CCN(CCCCc3ccccc3)CC2)n1 [SS8-070, 4-(4-(4-Fluorophenyl)-1-[1-(4-phenylbutyl)piperidin-4-yl)-1H-imidazol-5-yl)pyrimidin-2-amine] | 6.57 (n = 2) fold control | 0.79 | 0.41 | 8.52 (n = 2) fold control | 0.88 | 1.17 | 3.79 | 0.42 | 2.15 | 1.63 | –
2 | Nc1nccc(-c2c(-c3ccc(F)cc3)ncn2C23CC4CC(CC(C4)C2)C3)n1 [SS8-122, 4-(Adamantan-1-yl-4-(4-fluorophenyl)-1H-imidazol-5-yl)pyrimidin-2-amine] | – | 2.76 | 1.45 | 8.07 fold control | 1.56 | 1.39 | 4.26 | 0.15 | 1.67 | 0.86 | –
3 | Cc1ccc(-c2ncn(C3CCCCC3)c2-c2ccnc(N)n2)cc1 [SS8-186] | 6.58 ± 1.04 fold control | 1.54 | 0.75 ± 0.07 | 3.14 ± 0.20 fold control | 0.56 | 0.50 ± 0.12 | 3.06 ± 0.34 | 0.42 ± 0.06 | 1.84 ± 0.25 | 1.36 ± 0.17 | –
4 | CCCCN1CCC(n2cnc(-c3ccc(F)cc3)c2-c2ccnc(N)n2)CC1 [SS9-074, 4-(1-(1-Butylpiperidin-4-yl)-4-(4-fluorophenyl)-1H-imidazol-5-yl)pyrimidin-2-amine] | 12.3 (n = 2) fold control | 1.83 | 0.68 | 12.2 (n = 2) fold control | 2.14 | 1.61 | 3.46 | 0.36 | 3.27 | 1.22 | –
5 | CC(C)(C)n1cnc(-c2ccc(F)cc2)c1-c1ccnc(N)n1 [ZH9-190, 4-(1-(Tert-butyl)-4-(4-fluorophenyl)-1H-imidazol-5-yl)pyrimidin-2-amine] | – | – | – | – | – | – | – | – | – | – | 189 to 197
6 | CCn1cnc(-c2ccc(F)cc2)c1-c1ccnc(N)n1 [ZH-6, 4-(1-(Ethyl)-4-(4-fluorophenyl)-1H-imidazol-5-yl)pyrimidin-2-amine] | – | – | – | – | – | – | – | – | – | – | 204 to 212
7 | Nc1nccc(-c2c(-c3ccc(F)cc3)ncn2C2CCC2)n1 [ZH-62, 4-(1-Cyclobutyl-4-(4-fluorophenyl)-1H-imidazol-5-yl)pyrimidin-2-amine] | – | – | – | – | – | – | – | – | – | – | 229 to 231
8 | Nc1nccc(-c2c(-c3ccc(F)cc3)ncn2CC2CCCCC2)n1 [ZH-138, 4-(1-(Cyclohexylmethyl)-4-(4-fluorophenyl)-1H-imidazol-5-yl)pyrimidin-2-amine] | – | – | – | – | – | – | – | – | – | – | 180 to 199
9 | Fc1ccc(-c2ncn(C3CCCCC3)c2-c2ccnc(NC3CCC3)n2)cc1 [compound 81, N-Cyclobutyl-4-(1-cyclohexyl-4-(4-fluorophenyl)-1H-imidazol-5-yl)pyrimidin-2-amine] | – | – | – | – | – | – | – | – | – | – | 185 to 189
10 | C#CCNc1nccc(-c2c(-c3ccc(F)cc3)ncn2C2CCCCC2)n1 [compound 83, 4-(1-Cyclohexyl-4-(4-fluorophenyl)-1H-imidazol-5-yl)-N-(prop-2-yn-1-yl)pyrimidin-2-amine] | – | – | – | – | – | – | – | – | – | – | 147 to 155
11 | OCCNc1nccc(-c2c(-c3ccc(F)cc3)ncn2C2CCCCC2)n1 [compound 84, 2-((4-(1-Cyclohexyl-4-(4-fluorophenyl)-1H-imidazol-5-yl)pyrimidin-2-yl)amino)ethan-1-ol] | – | – | – | – | – | – | – | – | – | – | 180 to 184
